In PubChem BioAssay (NCI):
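Briefly, cells in 96-well plates were exposed to five compound concentrations for 48 h, and endpoints were estimated by linear interpolation. GI50: concentration for 50% inhibition of growth. TGI is the concentration that stops growth completely.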

How the values were obtained:
Assay in all cases: NCI anticancer screen, dose series, 48 h
[1] = system: BT-549 breast
[2] = system: DU-145 prostate
[3] = system: HS 578T breast
[4] = system: MDA-MB-231 breast
[5] = system: MDA-MB-435
[6] = system: NCI/ADR-RES ovarian
[7] = system: DLD-1 colon
[8] = system: M19-MEL melanoma

Row | SMILES | GI50 [1] | TGI [1] | GI50 [2] | TGI [2] | GI50 [3] | TGI [3] | GI50 [4] | TGI [4] | GI50 [5] | TGI [5] | GI50 [6] | TGI [6] | TGI [7] | TGI [8]
1 | O=C(O)c1cn(C2CC2)c2cc(N3CCN(C(=O)Nc4nc(-c5ccccc5)cs4)CC3)c(F)cc2c1=O | 0.473 µM | 10.4 µM | 1.05 µM | 15.8 µM | 0.861 µM | 72.1 µM | 2.3 µM | 9.94 µM | 1.16 µM | > 100 µM | 4.82 µM | > 100 µM | – | –
2 | CC1=CC(=O)C(C(C)C)=CC1=Nc1cc(Br)c(O)c(Br)c1 | 1.69 µM | 5.64 µM | 3.58 µM | 11.7 µM | 2.76 µM | 21.1 µM | 3.65 µM | 12.9 µM | 2.1 µM | 6.13 µM | – | – | – | –
3 | CCOC(=O)c1c(C)n(Cc2ccccc2)c2c1cc(O)c1[nH]c(Cc3ccccc3)nc12 | 2.39 µM | 28.8 µM | 20.5 µM | > 57.7 µM | 9.53 µM | > 57.8 µM | 20.1 µM | > 85.9 µM | > 42.8 µM | > 100 µM | 18.9 µM | > 57.9 µM | – | –
4 | COc1cc2c(cc1OC)C(Sc1ccc(SC)cc1)c1c(nc(N)c(C#N)c1N)O2 (stereo not drawn) | 1.38 µM | 2.67 µM | 1.75 µM | 3.17 µM | 2.01 µM | 4.52 µM | 1.55 µM | 2.92 µM | 1.75 µM | 3.23 µM | – | – | – | –
5 | CCOc1cc(Br)c(C(C)NC(=O)c2cccc(OC)c2)cc1OCC (stereo not drawn) | 13.2 µM | > 84.1 µM | 26.4 µM | > 100 µM | 15.5 µM | > 96.6 µM | 8.59 µM | > 100 µM | 2.16 µM | 6.1 µM | 5.71 µM | > 100 µM | – | –
6 | CCC(c1ccc(OC)cc1)C(CC)c1ccc(O)c(CN2CCN(C)CC2)c1 (stereo not drawn) | 13.2 µM | 26.8 µM | 11.3 µM | 24.1 µM | 3.08 µM | 9.56 µM | 3.7 µM | 15.1 µM | 2.72 µM | 9.4 µM | 5.51 µM | 20.6 µM | – | –
7 | COC(=O)/C(=N/Nc1cccc(Cl)c1)C(C(=O)C(=O)Nc1cccc(Cl)c1C)c1nc2ccccc2nc1C (stereo not drawn) | – | – | – | – | – | – | – | – | – | – | – | – | > 100 µM | > 100 µM
8 | S=C(Nc1ccc(N=Nc2ccccc2)cc1)SCc1ccccc1 | – | 40.3 µM | – | 29.6 µM | – | 61.5 µM | – | 28.9 µM | – | 36.4 µM | – | 35.1 µM | – | –
9 | FC(F)(F)c1ccc(-c2cnc(-n3cc(COCCN4CCCCC4)nn3)nc2NC2CCCCCC2)cc1 | 4.33 µM | 8.55 µM | 4.25 µM | 7.94 µM | 3.91 µM | 10.6 µM | 3.47 µM | 6.86 µM | 3.74 µM | 7.76 µM | 3.85 µM | 7.66 µM | – | –
10 | CC(=O)c1c(CN(C)c2ccccc2)n([O-])c2ccccc2[n+]1=O | 25.1 µM | 86.6 µM | 42.1 µM | > 100 µM | 50.7 µM | > 100 µM | 27.1 µM | > 100 µM | – | – | 19.5 µM | 55.9 µM | – | –
